# Reference: PubChem BioAssay AID1963435 (Molecular Pharmacology Branch, DTP, NCI, 2024)
# Tested on: PANC-1 complex spheroid growth, percent test/control
# Assay: Anticancer human tumor PANC-1 cell line growth inhibition [Asc];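 also: spheroids exposed to agents for 7 days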;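 as to viability, T/C: percent viability relative to DMSO vehicle wells taken as 100%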
# Conditions: for IC50: curve of first compound; for viability, T/C: stronger effect = lower value
# Procedure, shortened: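 Tumor cells were grown as complex spheroids with human endothelial cells (HUVEC) and human mesenchymal stem cells as stroma. Agents were tested alone and in combination, in half-log steps down from the clinical Cmax, or from 10 microM where Cmax was unknown.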
# [1] = second compound 0.00316 µM, first compound 0.0316 µM
# [2] = second compound 0.00316 µM, first compound 0.1 µM
# [3] = second compound 0.00316 µM, first compound 0.316 µM
# [4] = second compound 0.00316 µM, first compound 1 µM
# [5] = second compound 0.00316 µM, first compound 3.16 µM
# [6] = second compound 0.00316 µM, first compound 10 µM
# [7] = second compound 0.01 µM, first compound 0.0316 µM
# [8] = second compound 0.01 µM, first compound 0.1 µM
# [9] = second compound 0.01 µM, first compound 0.316 µM
# [10] = second compound 0.01 µM, first compound 1 µM
# [11] = second compound 0.01 µM, first compound 3.16 µM
# [12] = second compound 0.01 µM, first compound 10 µM
# [13] = second compound 0.0316 µM, first compound 0.0316 µM
# [14] = second compound 0.0316 µM, first compound 0.1 µM
# [15] = second compound 0.0316 µM, first compound 0.316 µM
# [16] = second compound 0.0316 µM, first compound 1 µM
# [17] = second compound 0.0316 µM, first compound 3.16 µM
# [18] = second compound 0.0316 µM, first compound 10 µM
# [19] = second compound 0.1 µM, first compound 0.0316 µM
# [20] = second compound 0.1 µM, first compound 0.1 µM
# [21] = second compound 0.1 µM, first compound 0.316 µM
# [22] = second compound 0.1 µM, first compound 1 µM
# [23] = second compound 0.1 µM, first compound 3.16 µM
# [24] = second compound 0.1 µM, first compound 10 µM
# [25] = second compound 0.316 µM, first compound 0.0316 µM
# [26] = second compound 0.316 µM, first compound 0.1 µM
# [27] = second compound 0.316 µM, first compound 0.316 µM
# [28] = second compound 0.316 µM, first compound 1 µM
# [29] = second compound 0.316 µM, first compound 3.16 µM
# [30] = second compound 0.316 µM, first compound 10 µM
# [31] = second compound 1 µM, first compound 0.0316 µM
# [32] = second compound 1 µM, first compound 0.1 µM
# [33] = second compound 1 µM, first compound 0.316 µM
# [34] = second compound 1 µM, first compound 1 µM
# [35] = second compound 1 µM, first compound 3.16 µM
# [36] = second compound 1 µM, first compound 10 µM
smiles,measurement,setting,value
C#Cc1c(F)ccc2cc(O)cc(-c3ncc4c(N5CC6CCC(C5)N6)nc(OCC56CCCN5CC(F)C6)nc4c3F)c12 (stereo not drawn) + CNC(C)C(=O)NC1CN(S(=O)(=O)c2cccc(S(=O)(=O)N3CCC4CCC(C(=O)NC(c5ccccc5)c5ccccc5)N4C(=O)C(NC(=O)C(C)NC)C3)c2)CCC2CCC(C(=O)NC(c3ccccc3)c3ccccc3)N2C1=O,IC50,second compound 0.00316 µM,> 10 µM
same,IC50,second compound 0.01 µM,> 10 µM
same,IC50,second compound 0.0316 µM,> 10 µM
same,IC50,second compound 0.1 µM,> 10 µM
same,IC50,second compound 0.316 µM,> 10 µM
same,IC50,second compound 1 µM,> 10 µM
same,"viability, T/C",[1],93.3%
same,"viability, T/C",[2],85.7%
same,"viability, T/C",[3],88%
same,"viability, T/C",[4],85.6%
same,"viability, T/C",[5],91%
same,"viability, T/C",[6],78%
same,"viability, T/C",[7],91.6%
same,"viability, T/C",[8],81.9%
same,"viability, T/C",[9],89.2%
same,"viability, T/C",[10],76.4%
same,"viability, T/C",[11],86.5%
same,"viability, T/C",[12],78.7%
same,"viability, T/C",[13],88.9%
same,"viability, T/C",[14],77.8%
same,"viability, T/C",[15],76.6%
same,"viability, T/C",[16],82%
same,"viability, T/C",[17],79.7%
same,"viability, T/C",[18],70.1%
same,"viability, T/C",[19],90.8%
same,"viability, T/C",[20],85.2%
same,"viability, T/C",[21],85.6%
same,"viability, T/C",[22],73.7%
same,"viability, T/C",[23],78.8%
same,"viability, T/C",[24],75.4%
same,"viability, T/C",[25],83%
same,"viability, T/C",[26],81.8%
same,"viability, T/C",[27],77.1%
same,"viability, T/C",[28],76.4%
same,"viability, T/C",[29],79.6%
same,"viability, T/C",[30],70.3%
same,"viability, T/C",[31],90.1%
same,"viability, T/C",[32],82.2%
same,"viability, T/C",[33],77.1%
same,"viability, T/C",[34],80.4%
same,"viability, T/C",[35],77.8%
same,"viability, T/C",[36],69.2%
C=C(F)C(=O)N1CCN(c2nc(OCC3CCCN3C)nc3c2CCN(c2cccc4cccc(Cl)c24)C3)CC1CC#N (stereo not drawn) + CNC(C)C(=O)NC1CN(S(=O)(=O)c2cccc(S(=O)(=O)N3CCC4CCC(C(=O)NC(c5ccccc5)c5ccccc5)N4C(=O)C(NC(=O)C(C)NC)C3)c2)CCC2CCC(C(=O)NC(c3ccccc3)c3ccccc3)N2C1=O,IC50,second compound 0.00316 µM,5.52 µM
same,IC50,second compound 0.01 µM,5.29 µM
same,IC50,second compound 0.0316 µM,5.31 µM
same,IC50,second compound 0.1 µM,5.4 µM
same,IC50,second compound 0.316 µM,2.64 µM
same,IC50,second compound 1 µM,4.05 µM
same,"viability, T/C",[1],99.5%
same,"viability, T/C",[2],99.1%
same,"viability, T/C",[3],101%
same,"viability, T/C",[4],92.4%
same,"viability, T/C",[5],91.6%
same,"viability, T/C",[6],5.56%
same,"viability, T/C",[7],95.6%
same,"viability, T/C",[8],92.4%
same,"viability, T/C",[9],92.4%
same,"viability, T/C",[10],100%
same,"viability, T/C",[11],85.1%
same,"viability, T/C",[12],6.24%
same,"viability, T/C",[13],88.1%
same,"viability, T/C",[14],86.8%
same,"viability, T/C",[15],107%
same,"viability, T/C",[16],91.8%
same,"viability, T/C",[17],86.8%
same,"viability, T/C",[18],5.07%
same,"viability, T/C",[19],90.5%
same,"viability, T/C",[20],102%
same,"viability, T/C",[21],90.3%
same,"viability, T/C",[22],99.3%
same,"viability, T/C",[23],87.6%
same,"viability, T/C",[24],6.55%
same,"viability, T/C",[25],89.2%
same,"viability, T/C",[26],92.4%
same,"viability, T/C",[27],96.2%
same,"viability, T/C",[28],95.1%
same,"viability, T/C",[29],41.9%
same,"viability, T/C",[30],4.83%
same,"viability, T/C",[31],84.8%
same,"viability, T/C",[32],91.3%
same,"viability, T/C",[33],93.4%
same,"viability, T/C",[34],95.4%
same,"viability, T/C",[35],63.1%
same,"viability, T/C",[36],2.3%
C=CC(=O)N1CCN(c2nc(=O)n(-c3c(C)ccnc3C(C)C)c3nc(-c4c(O)cccc4F)c(F)cc23)C(C)C1 (stereo not drawn) + CNC(C)C(=O)NC1CN(S(=O)(=O)c2cccc(S(=O)(=O)N3CCC4CCC(C(=O)NC(c5ccccc5)c5ccccc5)N4C(=O)C(NC(=O)C(C)NC)C3)c2)CCC2CCC(C(=O)NC(c3ccccc3)c3ccccc3)N2C1=O,IC50,second compound 0.00316 µM,> 10 µM
same,IC50,second compound 0.01 µM,> 10 µM
same,IC50,second compound 0.0316 µM,> 10 µM
same,IC50,second compound 0.1 µM,> 10 µM
same,IC50,second compound 0.316 µM,> 10 µM
same,IC50,second compound 1 µM,> 10 µM
same,"viability, T/C",[1],103%
same,"viability, T/C",[2],88.3%
same,"viability, T/C",[3],103%
same,"viability, T/C",[4],92.3%
same,"viability, T/C",[5],118%
same,"viability, T/C",[6],97.5%
same,"viability, T/C",[7],100%
same,"viability, T/C",[8],92.8%
same,"viability, T/C",[9],102%
same,"viability, T/C",[10],97%
same,"viability, T/C",[11],101%
same,"viability, T/C",[12],95%
same,"viability, T/C",[13],91.2%
same,"viability, T/C",[14],94.1%
same,"viability, T/C",[15],102%
same,"viability, T/C",[16],95.8%
same,"viability, T/C",[17],105%
same,"viability, T/C",[18],93.3%
same,"viability, T/C",[19],102%
same,"viability, T/C",[20],96.2%
same,"viability, T/C",[21],100%
same,"viability, T/C",[22],100%
same,"viability, T/C",[23],89.7%
same,"viability, T/C",[24],88.6%
same,"viability, T/C",[25],98.2%
same,"viability, T/C",[26],92.3%
same,"viability, T/C",[27],112%
same,"viability, T/C",[28],96.4%
same,"viability, T/C",[29],86.2%
same,"viability, T/C",[30],94.2%
same,"viability, T/C",[31],94.7%
same,"viability, T/C",[32],91.2%
same,"viability, T/C",[33],109%
same,"viability, T/C",[34],94.2%
same,"viability, T/C",[35],97.1%
same,"viability, T/C",[36],96.3%
CCN1C(C(=O)NC23CCC(C(=O)O)(CC2)CC3)C(c2cccc(Cl)c2F)C2(C(=O)Nc3cc(Cl)ccc32)C12CCCCC2 (stereo not drawn) + CNC(C)C(=O)NC1CN(S(=O)(=O)c2cccc(S(=O)(=O)N3CCC4CCC(C(=O)NC(c5ccccc5)c5ccccc5)N4C(=O)C(NC(=O)C(C)NC)C3)c2)CCC2CCC(C(=O)NC(c3ccccc3)c3ccccc3)N2C1=O,IC50,second compound 0.00316 µM,> 3 µM
same,IC50,second compound 0.01 µM,> 3 µM
same,IC50,second compound 0.0316 µM,> 3 µM
same,IC50,second compound 0.1 µM,> 3 µM
same,IC50,second compound 0.316 µM,> 3 µM
same,IC50,second compound 1 µM,> 3 µM
same,"viability, T/C","second compound 0.00316 µM, first compound 0.00949 µM",103%
same,"viability, T/C","second compound 0.00316 µM, first compound 0.03 µM",97.6%
same,"viability, T/C","second compound 0.00316 µM, first compound 0.0949 µM",101%
same,"viability, T/C","second compound 0.00316 µM, first compound 0.3 µM",103%
same,"viability, T/C","second compound 0.00316 µM, first compound 0.949 µM",113%
same,"viability, T/C","second compound 0.00316 µM, first compound 3 µM",124%
same,"viability, T/C","second compound 0.01 µM, first compound 0.00949 µM",109%
same,"viability, T/C","second compound 0.01 µM, first compound 0.03 µM",92.5%
same,"viability, T/C","second compound 0.01 µM, first compound 0.0949 µM",98.2%
same,"viability, T/C","second compound 0.01 µM, first compound 0.3 µM",97.2%
same,"viability, T/C","second compound 0.01 µM, first compound 0.949 µM",106%
same,"viability, T/C","second compound 0.01 µM, first compound 3 µM",126%
same,"viability, T/C","second compound 0.0316 µM, first compound 0.00949 µM",97.2%
same,"viability, T/C","second compound 0.0316 µM, first compound 0.03 µM",99.6%
same,"viability, T/C","second compound 0.0316 µM, first compound 0.0949 µM",101%
same,"viability, T/C","second compound 0.0316 µM, first compound 0.3 µM",95.8%
same,"viability, T/C","second compound 0.0316 µM, first compound 0.949 µM",104%
same,"viability, T/C","second compound 0.0316 µM, first compound 3 µM",125%
same,"viability, T/C","second compound 0.1 µM, first compound 0.00949 µM",97.5%
same,"viability, T/C","second compound 0.1 µM, first compound 0.03 µM",99.3%
same,"viability, T/C","second compound 0.1 µM, first compound 0.0949 µM",96.7%
same,"viability, T/C","second compound 0.1 µM, first compound 0.3 µM",109%
same,"viability, T/C","second compound 0.1 µM, first compound 0.949 µM",105%
same,"viability, T/C","second compound 0.1 µM, first compound 3 µM",121%
same,"viability, T/C","second compound 0.316 µM, first compound 0.00949 µM",99.2%
same,"viability, T/C","second compound 0.316 µM, first compound 0.03 µM",102%
same,"viability, T/C","second compound 0.316 µM, first compound 0.0949 µM",106%
same,"viability, T/C","second compound 0.316 µM, first compound 0.3 µM",92.6%
same,"viability, T/C","second compound 0.316 µM, first compound 0.949 µM",103%
same,"viability, T/C","second compound 0.316 µM, first compound 3 µM",108%
same,"viability, T/C","second compound 1 µM, first compound 0.00949 µM",96.9%
same,"viability, T/C","second compound 1 µM, first compound 0.03 µM",103%
same,"viability, T/C","second compound 1 µM, first compound 0.0949 µM",98%
same,"viability, T/C","second compound 1 µM, first compound 0.3 µM",101%
same,"viability, T/C","second compound 1 µM, first compound 0.949 µM",116%
same,"viability, T/C","second compound 1 µM, first compound 3 µM",107%
